{"source": "patent US12247029B2", "about": "“Heterocyclic compounds as class II phosphoinositide 3-kinase inhibitors” (Forschungsverbund Berlin e.V., priority 2018, dated 2025)", "molecular_target": "PI3KC2α Δ1-298 (Homo sapiens (Human), UniProt O00443)", "sequence (O00443 299-1686)": "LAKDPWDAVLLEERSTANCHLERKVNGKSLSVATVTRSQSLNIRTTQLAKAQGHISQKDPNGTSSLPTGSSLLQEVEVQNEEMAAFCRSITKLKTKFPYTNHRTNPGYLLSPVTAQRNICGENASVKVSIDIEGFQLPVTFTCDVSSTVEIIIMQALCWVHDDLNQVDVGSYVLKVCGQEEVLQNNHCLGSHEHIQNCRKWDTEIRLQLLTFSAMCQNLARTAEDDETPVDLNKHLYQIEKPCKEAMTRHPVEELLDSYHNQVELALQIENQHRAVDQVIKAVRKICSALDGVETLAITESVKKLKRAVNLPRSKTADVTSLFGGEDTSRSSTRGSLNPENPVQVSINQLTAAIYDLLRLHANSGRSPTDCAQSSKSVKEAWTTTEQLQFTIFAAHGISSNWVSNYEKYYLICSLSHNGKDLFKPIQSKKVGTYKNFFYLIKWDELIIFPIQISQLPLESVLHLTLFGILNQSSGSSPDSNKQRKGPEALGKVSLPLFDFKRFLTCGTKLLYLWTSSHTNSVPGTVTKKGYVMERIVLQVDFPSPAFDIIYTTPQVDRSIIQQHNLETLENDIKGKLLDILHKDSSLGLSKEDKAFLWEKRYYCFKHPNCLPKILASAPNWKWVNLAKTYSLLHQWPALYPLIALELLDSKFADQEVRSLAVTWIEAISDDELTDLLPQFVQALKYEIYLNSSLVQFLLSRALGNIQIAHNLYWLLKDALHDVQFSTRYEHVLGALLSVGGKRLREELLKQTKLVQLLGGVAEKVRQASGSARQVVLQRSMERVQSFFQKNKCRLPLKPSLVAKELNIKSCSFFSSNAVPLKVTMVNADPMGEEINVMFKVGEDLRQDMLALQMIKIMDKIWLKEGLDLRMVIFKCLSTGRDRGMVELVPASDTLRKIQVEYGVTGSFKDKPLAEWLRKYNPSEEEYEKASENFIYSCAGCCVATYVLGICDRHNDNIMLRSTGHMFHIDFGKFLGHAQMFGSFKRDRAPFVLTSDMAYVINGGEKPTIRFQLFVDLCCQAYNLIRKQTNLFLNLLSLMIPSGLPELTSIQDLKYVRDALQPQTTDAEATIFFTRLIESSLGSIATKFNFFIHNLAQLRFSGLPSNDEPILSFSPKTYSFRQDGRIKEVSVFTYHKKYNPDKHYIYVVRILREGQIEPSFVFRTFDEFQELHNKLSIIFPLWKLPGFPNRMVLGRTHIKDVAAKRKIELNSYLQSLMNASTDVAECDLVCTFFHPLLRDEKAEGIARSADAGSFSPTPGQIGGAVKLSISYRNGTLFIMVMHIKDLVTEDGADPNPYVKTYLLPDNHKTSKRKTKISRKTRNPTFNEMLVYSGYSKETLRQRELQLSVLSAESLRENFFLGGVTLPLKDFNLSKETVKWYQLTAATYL", "experiment": "ADP-Glo kinase assay with purified PI3KC2α Δ1-298", "type": "biochemical", "settings": "for IC50: read-out: IC50 (PI3KC2α; ADP-Glo™ assay)", "protocol": "Previous studies have shown that PI3KC2α can utilize phosphatidylinositol (PI) or phosphatidylinositol 4-phosphate [PI(4)P] to produce PI(3)P or PI(3,4)P2 respectively but with a preference for PI(3,4)P2 production. To verify that purified PI3KC2α Δ1-298 is active, a radioactive kinase assay was performed with PI as a substrate and different amounts of purified PI3KC2α Δ1-298. The lipid product [PI(3)P] was separated on TLC plates, and the PI(3)P signal was correlated with the amount of PI3KC2α used (FIG. 4A). […] After having confirmed the activity of purified PI3KC2α Δ1-298, an assay suitable for high content screens in multiwell format (ADP-Glo™ assay) was established. The ADP-Glo™ assay has been used for universal detection of ATP hydrolysis. This assay measures ATP hydrolysis occurring during a kinase reaction. For detection, generated ADP is re-converted into ATP with the […] and converted into light by the Ultra-Glo™ Luciferase reagent. The luminescent signal reports kinase activity (FIG. 4B).\nThe ADP-Glo™ assay was first used to determine the linear correlation range of signal with different amounts of kinase, and then to assess the Kms for ATP and for PI. […] Further optimization of this assay allowed us to carry out medium-to-high throughput screening using low amounts of purified enzyme (at fixed concentrations of: ATP=40 μM, PI=200 μM, PI3KC2α A1−298=10 ng/μl).\nPrimary screens were performed using the ADP-Glo™ assay in a 384-well format. 37, 224 small molecules were screened for their ability to inhibit kinase activity of PI3KC2α Δ1-298. The concentration of each compound used in the primary screens was 10 μM. Kinase incubations with ATP but without PI were used as negative control samples. This primary screen turned out to be robust with an average z′ factor of 0.57, and therefore judged as successful.\nADP-Glo kinase assay was performed as described by the manufacturer's protocol. Briefly, the kinase assay was performed with a […] of liver PI/ATP/purified PI3KC2α for 20 min in kinase reaction buffer described above. To deplete the remaining ATP from the reaction, 5 μl of […] was added to the kinase reaction mixture and incubated for 40 min. For detection, the generated ADP is re-converted into ATP and converted into light by the Ultra-Glo™ luciferase in kinase detection reagent. The luminescent signal positively correlates with kinase activity. All reactions are performed in Corning® 384 well-white plates."}
{"compound": "O=C(CSc1nc2nccnc2c(=O)n1CCc1ccccc1)Nc1ncc(Br)s1", "note": "[Example Compound 29, N-(5-Bromothiazol-2-yl)-2-((4-oxo-3-phenethyl-3,4-dihydropteridin-2-yl)thio)acetamide]", "values": [{"measurement": "PI3KC2α inhibitory activity (in words, SAR)", "result": "functional compounds"}, {"measurement": "IC50", "result": 6600, "unit": "nM"}]}
{"compound": "O=C(CSc1nc2nccnc2c(=O)n1CCc1ccccc1)Nc1ccccc1F", "note": "[Example Compound 15, N-(2-Fluorophenyl)-2-((4-oxo-3-phenethyl-3,4-dihydropteridin-2-yl)thio)acetamide]", "values": [{"measurement": "IC50", "result": 6000, "unit": "nM"}]}
{"compound": "CC(C)(C)OC(=O)N1CCC(n2c(SCC(=O)Nc3nccs3)nc3nccnc3c2=O)CC1", "note": "[Example Compound 93, tert-Butyl 4-(4-oxo-2-((2-oxo-2-(thiazol-2-ylamino)ethyl)thio)pteridin-3(4H)-yl)piperidine-1-carboxylate]", "values": [{"measurement": "IC50", "result": 3600, "unit": "nM"}]}
{"compound": "CC(Sc1nc2nccnc2c(=O)n1CCc1cccc(F)c1)C(=O)Nc1nccs1", "note": "(stereo not drawn) [Example Compound 16, 2-((3-(3-Fluorophenethyl)-4-oxo-3,4-dihydropteridin-2-yl)thio)-N-(thiazol-2-yl)propanamide]", "values": [{"measurement": "PI3KC2α inhibitory activity (in words, SAR)", "result": "did not disrupt the activity"}, {"measurement": "IC50", "result": 5200, "unit": "nM"}]}
{"compound": "O=c1[nH]c(CSc2nc3nccnc3c(=O)n2CCc2ccccc2)nc2ccccc12", "note": "[Example Compound 67, 2-(((4-Oxo-3,4-dihydroquinazolin-2-yl)methyl)thio)-3-phenethylpteridin-4(3H)-one]", "values": [{"measurement": "IC50", "result": 1900, "unit": "nM"}]}
{"compound": "COC(=O)[C@H]1C[C@H](n2c(SCc3nc4ccccc4[nH]3)nc3nccnc3c2=O)C1", "note": "[Example Compound 92, trans-Methyl-3-(2-(((1H-benzo[d]imidazol-2-yl)methyl)thio)-4-oxo-pteridin-3(4H)-yl)cyclobutane-1-carboxylate]", "values": [{"measurement": "IC50", "result": 320, "unit": "nM"}]}
{"compound": "COC(=O)c1ccc2[nH]c(CSc3nc4nccnc4c(=O)n3CCc3ccccc3)nc2c1", "note": "[Example Compound 75, Methyl 2-(((4-oxo-3-phenethyl-3,4-dihydropteridin-2-yl)thio)methyl)-1H-benzo[d]imidazole-5-carboxylate]", "values": [{"measurement": "IC50", "result": 2600, "unit": "nM"}]}
{"compound": "Cn1ncc2c(=O)[nH]c(CSc3nc4nccnc4c(=O)n3CCc3ccccc3)nc21", "note": "[Example Compound 71, 2-(((1-Methyl-4-oxo-4,5-dihydro-1H-pyrazolo[3,4-d]pyrimidin-6-yl)methyl)thio)-3-phenethylpteridin-4(3H)-one]", "values": [{"measurement": "IC50", "result": 1500, "unit": "nM"}]}
{"compound": "CS(=O)(=O)N(c1cccc(-c2csc(NC(=O)CSc3nc4nccnc4c(=O)n3CCc3ccccc3)n2)c1)S(C)(=O)=O", "note": "[Example Compound 55, N-(4-(3-(N-(Methylsulfonyl)methylsulfonamido)phenyl)thiazol-2-yl)-2-((4-oxo-3-phenethyl-3,4-dihydropteridin-2-yl)thio)acetamide]", "values": [{"measurement": "IC50", "result": 200, "unit": "nM"}]}
{"compound": "O=C(CSc1nc2nccnc2c(=O)n1CCc1ccccc1)Nc1nc(-c2ccc3ccccc3c2)cs1", "note": "[Example Compound 48, N-(4-(Naphthalen-2-yl)thiazol-2-yl)-2-((4-oxo-3-phenethyl-3,4-dihydropteridin-2-yl)thio)acetamide]", "values": [{"measurement": "IC50", "result": 26000, "unit": "nM"}]}
{"compound": "O=C(CSc1nc2nccnc2c(=O)n1CCc1ccccc1)Nc1nc(-c2cccc(O)c2)cs1", "note": "[Example Compound 1, N-(4-(3-Hydroxyphenyl)thiazol-2-yl)-2-((4-oxo-3-phenethyl-3,4-dihydropteridin-2-yl)thio)acetamide]", "values": [{"measurement": "IC50", "result": 120, "unit": "nM"}]}
{"compound": "O=C(CSc1nc2nccnc2c(=O)n1C1CCc2ccccc21)Nc1nccs1", "note": "(stereo not drawn) [Example Compound 19, 2-((3-(2,3-Dihydro-1H-inden-1-yl)-4-oxo-3,4-dihydropteridin-2-yl)thio)-N-(thiazol-2-yl)acetamide]", "values": [{"measurement": "IC50", "result": 1600, "unit": "nM"}]}
{"compound": "O=C(CSc1nc2nccnc2c(=O)n1CCc1ccc(O)cc1)Nc1nccs1", "note": "[Example Compound 95, 2-((3-(4-Hydroxyphenethyl)-4-oxo-3,4-dihydropteridin-2-yl)thio)-N-(thiazol-2-yl)acetamide]", "values": [{"measurement": "IC50", "result": 210, "unit": "nM"}]}
{"compound": "O=c1c2nccnc2nc(SCc2nc3cc(Br)ccc3[nH]2)n1CCc1ccccc1", "note": "[Example Compound 72, 2-(((5-Bromo-1H-benzo[d]imidazol-2-yl)methyl)thio)-3-phenethylpteridin-4(3H)-one]", "values": [{"measurement": "IC50", "result": 51000, "unit": "nM"}]}
{"compound": "O=c1c2nccnc2nc(SCc2nc3ccccc3o2)n1CCc1ccccc1", "note": "[Example Compound 63, 2-((Benzo[d]oxazol-2-ylmethyl)thio)-3-phenethylpteridin-4(3H)-one]", "values": [{"measurement": "IC50", "result": 5700, "unit": "nM"}]}
{"compound": "CC(C)NC(=O)CSc1nc2nccnc2c(=O)n1CCc1ccccc1", "note": "[Example Compound 61, N-Isopropyl-2-((4-oxo-3-phenethyl-3,4-dihydropteridin-2-yl)thio)acetamide]", "values": [{"measurement": "inhibition at 10 µM", "result": 30, "unit": "%"}]}
{"compound": "O=C(CSc1nc2ncccc2c(=O)n1CCc1ccccc1)Nc1nccs1", "note": "[Example Compound 54, 2-((4-Oxo-3-phenethyl-3,4-dihydropyrido[2,3-d]pyrimidin-2-yl)thio)-N-(thiazol-2-yl)acetamide]", "values": [{"measurement": "IC50", "result": 820, "unit": "nM"}]}
{"compound": "CNC(=O)c1ccc(-n2c(SCC(=O)Nc3nccs3)nc3nccnc3c2=O)cc1", "note": "[Example Compound 81, 4 N-Methyl-4-(4-oxo-2-((2-oxo-2-(thiazol-2-ylamino)ethyl)thio)pteridin-3(4H)-yl)benzamide]", "values": [{"measurement": "IC50", "result": 620, "unit": "nM"}]}
{"compound": "O=C(CSc1nc2nccnc2c(=O)n1Cc1ccccc1)Nc1nccs1", "note": "[Example Compound 42, 2-((3-Benzyl-4-oxo-3,4-dihydropteridin-2-yl)thio)-N-(thiazol-2-yl)acetamide]", "values": [{"measurement": "IC50", "result": "< 50000", "unit": "nM"}]}
{"compound": "N#Cc1ccc(-n2c(SCc3nc4ccccc4[nH]3)nc3nccnc3c2=O)cc1", "note": "[Example Compound 86, 4-(2-(((1H-Benzo[d]imidazol-2-yl)methyl)thio)-4-oxopteridin-3(4H)-yl)benzonitrile]", "values": [{"measurement": "IC50", "result": 1100, "unit": "nM"}]}
{"compound": "O=C(CSc1nc2nccnc2c(=O)n1CCc1cccs1)Nc1nccs1", "note": "[Example Compound 8, 2-((4-Oxo-3-(2-(thiophen-2-yl)ethyl)-3,4-dihydropteridin-2-yl)thio)-N-(thiazol-2-yl)acetamide]", "values": [{"measurement": "IC50", "result": 1100, "unit": "nM"}]}
{"compound": "O=C(CCc1nc2nccnc2c(=O)n1CCc1ccccc1)NCCc1ccccc1", "note": "[Example Compound 102, 3-(4-Oxo-3-phenethyl-3,4-dihydropteridin-2-yl)-N-phenethylpropanamide]", "values": [{"measurement": "inhibition at 10 µM", "result": 36, "unit": "%"}]}
{"compound": "O=C(CSc1nc2nccnc2c(=O)n1CCc1cccc(F)c1)NC1CC1", "note": "[Example Compound 7, N-Cyclopropyl-2-((3-(3-fluorophenethyl)-4-oxo-3,4-dihydropteridin-2-yl)thio)acetamide]", "values": [{"measurement": "IC50", "result": 7100, "unit": "nM"}]}
{"compound": "Cc1nnc(NC(=O)CSc2nc3nccnc3c(=O)n2CCc2cccc(F)c2)s1", "note": "[Example Compound 5, 2-((3-(3-Fluorophenethyl)-4-oxo-3,4-dihydropteridin-2-yl)thio)-N-(5-methyl-1,3,4-thiadiazol-2-yl)acetamide]", "values": [{"measurement": "IC50", "result": 6300, "unit": "nM"}]}
{"compound": "Cc1nc(CSc2nc3nccnc3c(=O)n2CCc2ccccc2)[nH]c1C", "note": "[Example Compound 77, 2-(((4,5-Dimethyl-1H-imidazol-2-yl)methyl)thio)-3-phenethylpteridin-4(3H)-one]", "values": [{"measurement": "IC50", "result": 23000, "unit": "nM"}]}
{"compound": "O=C(CSc1nc2nccnc2c(=O)n1CCc1ccccc1)Nc1nc(-c2ccsc2)cs1", "note": "[Example Compound 23, 2-((4-Oxo-3-phenethyl-3,4-dihydropteridin-2-yl)thio)-N-(4-(thiophen-3-yl)thiazol-2-yl)acetamide]", "values": [{"measurement": "IC50", "result": 760, "unit": "nM"}]}
{"compound": "O=C(CSc1nc2nccnc2c(=O)n1CCc1ccccc1)Nc1nc(-c2cccc([N+](=O)[O-])c2)cs1", "note": "[Example Compound 58, N-(4-(3-Nitrophenyl)thiazol-2-yl)-2-((4-oxo-3-phenethyl-3,4-dihydropteridin-2-yl)thio)acetamide]", "values": [{"measurement": "inhibition at 10 µM", "result": 100, "unit": "%"}]}
{"compound": "O=c1c2nccnc2nc(SCc2nc3cc(Br)cnc3[nH]2)n1CCc1ccccc1", "note": "[Example Compound 74, 2-(((6-Bromo-3H-imidazo[4,5-b]pyridin-2-yl)methyl)thio)-3-phenethylpteridin-4(3H)-one]", "values": [{"measurement": "IC50", "result": 910, "unit": "nM"}]}
{"compound": "O=c1c2nccnc2nc(SCc2nc3ccccc3[nH]2)n1CCc1ccccc1", "note": "[Example Compound 65, 2-(((1H-Benzo[d]imidazol-2-yl)methyl)thio)-3-phenethylpteridin-4(3H)-one]", "values": [{"measurement": "IC50", "result": 170, "unit": "nM"}]}
{"compound": "O=C(CCc1nc2nccnc2c(=O)n1CCc1ccccc1)Nc1ccccc1", "note": "[Example Compound 100, 3-(4-Oxo-3-phenethyl-3,4-dihydropteridin-2-yl)-N-phenylpropanamide]", "values": [{"measurement": "inhibition at 10 µM", "result": 31, "unit": "%"}]}
{"compound": "Cc1cnc2nc(SCC(=O)Nc3nccs3)n(CCc3ccccc3)c(=O)c2n1", "note": "[Example Compound 46, 2-((6-Methyl-4-oxo-3-phenethyl-3,4-dihydropteridin-2-yl)thio)-N-(thiazol-2-yl)acetamide]", "values": [{"measurement": "IC50", "result": 23000, "unit": "nM"}]}
